From US20190350236A1, “METHOD OF PROCESSING SHELLFISH AND RESULTING COMPOSITIONS” (SANFORD LIMITED, priority 2016, published 2019)

Key:
[1] = DPPH scavenging method (antioxidant activity); details: reference value used for FIG. 8
Experimental: The antioxidant activity of each of the samples was tested using the DPPH scavenging method (i.e. by using the stable free radical 2,2-Diphenyl-1-(2,4,6-trinitrophenyl) hydrazyl as a substrate). Whilst the DPPH method is not a direct anti-inflammatory assay, antioxidant activity has been an indication of anti-inflammatory activity in many study cases. The DPPH solution was prepared […] and kept in the freezer in the dark before use. The positive control was ascorbic acid prepared as 0.1 mg/ml in a buffer containing citric acid and NaHPO4 (pH 5). Equal amounts of sample solution and DPPH solution were added together, and the assay tube or plate was incubated for 30 minutes in the dark, followed by absorbance measurement at 517 nm on a spectrophotometer. In the blank control experiment of each sample, DPPH was replaced with ethanol. In the DPPH blank control experiment, the sample was replaced with the media (water or solvent) the sample was prepared in.
The scavenging activity (DPPH inhibition %) is calculated by percentage of the absorbance from the sample versus the DPPH only:
All samples were tested at a concentration of 10 mg/ml.

[2] = tested on: activated neutrophils; assay: Inhibition of superoxide production by PMA-activated neutrophils (WST-1 reduction), anti-inflammatory activity; type: cell-based; details: Rattus norvegicus, Neutrophil
Experimental: The relative anti-inflammatory properties of the test samples were determined by establishing their abilities to inhibit the activation of neutrophils as measured by the production of superoxide. The efficacy of the test samples was referenced against Aspirin, as well as an un-supplemented control group.
Samples 1, 2 and 3 (actually numbered samples 3, 4 and 5 in the above table) were produced from the same batch of mussels. Each of the above test samples was extracted with ethanol at a ratio of 1:10 (w:v) and the residues were then extracted with distilled water at the same ratio, so that the activity of both the lipid rich or hydrophobic fraction and the hydrophilic or aqueous fraction of each of the test samples could be tested. The experimental procedure for determining the effects of the test samples on inflammation was based on the methods described in Tan, A S and Berridge, MV (2000). Superoxide produced by activated neutrophils efficiently reduces the tetrazolium salt, WST-1 to produce a soluble formazan: a simple colorimetric assay for measuring respiratory burst activation and for screening of anti-inflammatory agents. J Immunol. Meth. 238: 59-68. Neutrophils were harvested from rat whole blood and activated with phorbol 12-myristate 13-acetate (PMA). The activated neutrophils were then incubated and cultured in the presence of each of the test samples and the controls. The reduction of the WST-1 dye was measured to determine the products of superoxide. The control group was set at 100% activity (0% inhibition) and the inhibition of all samples were compared to this reference.
The ethanol and water extracts (lipid rich and hydrophilic fractions) from each of the test samples were tested at 400 μg/ml for their anti-inflammatory activity based on the inhibition of superoxide by activated neutrophils. The yields of each extraction were used along with the activity of each to obtain an estimate for the total activity within each of the test samples for the two fractions.

Compound | IC50 of Vitamin E equivalent [1] | IC50 ([2]; reference value used for FIG. 7, read-out: IC50 of aspirin equivalent) | inhibition at 100 µg/mL ([2]; reference, 100 μg/ml) | inhibition at 200 µg/mL ([2]; reference, 200 μg/ml) | inhibition at 400 µg/mL ([2]; reference, 400 μg/ml)
Vitamin E | 9.26 µg/mL |  |  |  | 
CC(=O)Oc1ccccc1C(=O)O [Aspirin] |  | 400 µg/mL | 16.5% | 48.1% | 50.2%
